In patent US10087191B2, “Piperidine derivative and preparation method and pharmaceutical use thereof” (Jiangsu Hengrui Medicine Co., Ltd., priority 2015, dated 2018):
Where two headings read alike, the source gives them in different places.

Experiments:
Format in all cases: cell-based
[1] = system: MCF7 cells; assay: Inhibition of the proliferation of MCF7 cells (Cell Titer-Glo); settings: Homo sapiens, MCF-7 cells, 72 hours, read-out: IC50 value of inhibition effect on the proliferation of MCF7 cells
Protocol: The object of this experiment was to determine the inhibition effect of the compounds on the proliferation activity of MCF7 cells, and the in vitro activity of the compounds was evaluated according to the IC50 value.
After incubation for 24 hours, the medium was removed, then 90 μl of the medium containing 2% FBS and 10 μl of the drug were added to each well, 10 μl of DMSO were added to the control group, and the blank group contained only 100 μl medium containing 2% FBS. The plate was gently shaken and incubated in a incubator at 37° C., 5% CO2. After 72 hours, 50 μl of mixed Cell Titer-Glo (Promega, Cat. No. G7571) were added to each well. The plate was shaken until the ingredients were well mixed, and placed at room temperature for 10 minutes, then the chemiluminescence signal value was determined.
The values of the chemiluminescence signals vs the logarithmic concentrations of the compounds were plotted using Graghpad Prism to obtain IC50 values.

[2] = molecular target: ERα (Homo sapiens (Human), UniProt P03372); assay: Degradation effect on ERα in MCF-7 cells (ERα Duoset ELISA); settings: read-out: IC50 value of the degradation effect on ERα
Sequence of ERα (P03372 whole entry): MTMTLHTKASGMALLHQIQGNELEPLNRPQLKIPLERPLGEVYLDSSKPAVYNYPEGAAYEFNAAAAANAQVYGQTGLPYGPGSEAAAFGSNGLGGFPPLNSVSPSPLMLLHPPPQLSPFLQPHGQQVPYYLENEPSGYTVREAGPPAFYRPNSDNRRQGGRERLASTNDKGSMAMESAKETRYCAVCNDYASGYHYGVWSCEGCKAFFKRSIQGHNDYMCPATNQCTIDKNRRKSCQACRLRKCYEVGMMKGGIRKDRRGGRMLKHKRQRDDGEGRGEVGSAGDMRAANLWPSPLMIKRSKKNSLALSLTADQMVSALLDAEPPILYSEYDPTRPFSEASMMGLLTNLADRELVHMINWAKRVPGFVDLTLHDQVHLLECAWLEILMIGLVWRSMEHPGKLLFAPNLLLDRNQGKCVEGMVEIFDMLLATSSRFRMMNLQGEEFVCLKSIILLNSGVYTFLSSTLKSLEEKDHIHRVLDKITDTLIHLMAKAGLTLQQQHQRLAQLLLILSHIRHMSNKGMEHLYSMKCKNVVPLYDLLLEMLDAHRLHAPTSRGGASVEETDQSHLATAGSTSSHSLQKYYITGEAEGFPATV
Protocol: In order to determine the degradation effect on ER induced by the compounds of the present invention, the following method was used to determine the degradation effect of the compounds of the present invention on ER.
MCF-7 cell line (TChu 74, Cell Bank of Chinese Academy of Sciences typical culture preservation Committee)
ERα Duoset Kit (#DYC5715E, R&D System)
MCF-7 cells were incubated in DMEM/F-12 medium containing 10% FBS.
On the first day of the experiment, MCF-7 cells were resuspended in DMEM/F-12 medium containing 10% FBS treated by activated carbon, then inoculated into a 48-well plate with a density of 50,000 cells/well and incubated for 22-24 hours.
On the second day of the experiment, the test compound was diluted with medium and added to a 48-well plate. The ERα-capture antibody was diluted to 1 μg/ml with PBS, and added to a 96-well plate at 100 μl/well. The plate was sealed and coated overnight at room temperature.
On the third day of the experiment, the coated 96-well plate was washed twice with PBS, added with a sealing solution (1% BSA in PBS) at 110 μl/well and sealed for 1 hour at room temperature. The 48-well plate was washed once with PBS, and the residual liquid was removed. Then, 60 μl of lysis (6 M urea, 1 mM EDTA, 0.5% Triton X-100, 1 mM PMSF, Protease Inhibitor cocktail) was added to each well. After lysis on ice for 15 minutes, the diluent (1 mM EDTA, 0.5% TritonX-100 dissolved in PBS) was added. The cell-diluted lysate was transferred to a 96-well plate at 100 μl/well, then the plate was incubated at room temperature for 2 hours. The diluted primary antibody was added after the plate was washed 4 times with a washing liquid (PBST). After incubation for 1 hour, the 96-well plate was washed 4 times, and the second antibody was added, then the plate was incubated for 30 minutes. After the plate was washed with a washing liquid, TMB chromogenic solution was added and incubated for 15 minutes. The reaction was stopped by the addition of 1 M H2SO4, then the light absorption at 450 nm was read.

[3] = molecular target: estrogen receptor (ER) (Homo sapiens (Human), UniProt P03372); assay: Inhibition of the binding of estrogen (E) to estrogen receptor (ER), MCF-7/ERE-luciferase reporter cells; settings: MCF-7/ERE-luciferase cells, 0.1 nM estradiol, 24 hours; read-out: IC50 value of inhibition effect on the binding of E to ER
Sequence of estrogen receptor (ER) (P03372 whole entry): as above
Protocol: The inhibition effect of the compounds on the binding of E to ER in vitro was tested by the following method.
The object of this experiment was to determine the inhibition effect of the compounds on the binding of E to ER, and the in vitro activity of the compounds was evaluated according to the IC50 value.
MCF-7/ERE-luciferase cells were inoculated into the MEM medium (hyclone, SH30024.01B) containing 10% charcoal stripped FBS (Moregate, FBSF), 1% sodium pyruvate (Sigma, Cat. No. S8636), 1% nonessential amino acids (Sigma, Cat. No. M7145) and 500 μg/ml G418 in a 96-well plate with a density of 30,000 cells/well, and the cells were incubated under the conditions of 37° C. and 5% CO2. […] After incubation for 24 hours, the medium was removed, then 0.1 nM estradiol (Sigma, Cat. No. E2758) and 10 μl of the drug diluted with the medium were added to each well, and the control group was added with DMSO. The plate was gently shaken and incubated in a incubator at 37° C., 5% CO2. After 24 hours, the cell culture medium was discarded.
The inhibition effect of the compounds of the present invention on the binding of E to ER was tested by the experiment described above.

Row | Compound | IC50 [1] [nM] | IC50 [3] [nM] | DC50 [2] [nM] | DC50 ([2]; MCF-7 cells) [nM]
1 | CC1Cc2cc3c(cc2C(c2c(F)cc(/C=C/C(=O)O)cc2F)N1CC(C)(C)F)OCO3 [Example 1, (E)-3-(3,5-difluoro-4-((5S,7R/5R,7S)-6-(2-fluoro-2-methylpropyl)-7-methyl-5,6,7,8-tetrahydro-[1,3]dioxolo[4,5-g]isoquinolin-5-yl)phenyl)acrylic acid] | 0.12 |  | 0.11 | 
2 | CC1Cc2c(oc3ccccc23)C(c2c(F)cc(/C=C/C(=O)O)cc2F)N1CC(C)(C)F [Example 4, (E)-3-(3,5-difluoro-4-((1R,3R/1S,3S)-2-(2-fluoro-2-methylpropyl)-3-methyl-1,2,3,4-tetrahydrobenzofuro[2,3-c]pyridin-1-yl)phenyl)acrylic acid] | 0.19 |  |  | 0.56
3 | CC1Cc2c(sc3ccccc23)C(c2c(F)cc(/C=C/C(=O)O)cc2F)N1CC(C)(C)F [Example 5, (E)-3-(3,5-difluoro-4-((1R,3R/1S,3S)-2-(2-fluoro-2-methylpropyl)-3-methyl-1,2,3,4-tetrahydrobenzo[4,5]thieno[2,3-c]pyridin-1-yl)phenyl)acrylic acid] | 1.2 |  |  | 3.94
4 | CC1Cc2sc3ccccc3c2C(c2c(F)cc(/C=C/C(=O)O)cc2F)N1CC(C)(C)F [Example 6, (E)-3-(3,5-difluoro-4-((1R,3R/1S,3S)-2-(2-fluoro-2-methylpropyl)-3-methyl-1,2,3,4-tetrahydrobenzo[4,5]thieno[3,2-c]pyridin-1-yl)phenyl)acrylic acid] | 1.91 |  |  | 1.92
5 | CC1Cc2cc(-c3cnn(C(F)F)c3)ccc2C(c2c(F)cc(/C=C/C(=O)O)cc2F)N1CC(C)(C)F (centres unmarked) [Example 13] | 0.46 |  |  | 6.93
6 | CC1Cc2cc(-c3cnn(C(C)C)c3)ccc2C(c2c(F)cc(/C=C/C(=O)O)cc2F)N1CC(C)(C)F [Example 50, (E)-3-(3,5-difluoro-4-((1S,3R/1R,3S)-2-(2-fluoro-2-methylpropyl)-6-(1-isopropyl-1H-pyrazol-4-yl)-3-methyl-1,2,3,4-tetrahydroisoquinolin-1-yl)phenyl)acrylic acid] | 4.86 | 9.7 |  | 
7 | CC1Cc2cc(-c3cnc4ccccc4c3)ccc2C(c2c(F)cc(/C=C/C(=O)O)cc2F)N1CC(C)(C)F [Example 62, (E)-3-(3,5-difluoro-4-((1S,3R/1R,3S)-2-(2-fluoro-2-methylpropyl)-3-methyl-6-(quinolin-3-yl)-1,2,3,4-tetrahydroisoquinolin-1-yl)phenyl)acrylic acid] | 16.1 | 13.6 |  | 
8 | CC1Cc2cc(-c3ccc4ncccc4c3)ccc2C(c2c(F)cc(/C=C/C(=O)O)cc2F)N1CC(C)(C)F [Example 63, (E)-3-(3,5-difluoro-4-((1S,3R/1R,3S)-2-(2-fluoro-2-methylpropyl)-3-methyl-6-(quinolin-6-yl)-1,2,3,4-tetrahydroisoquinolin-1-yl)phenyl)acrylic acid] | 0.58 | 1.7 |  | 
9 | Cc1nc2ccc(-c3ccc4c(c3)CC(C)N(CC(C)(C)F)C4c3c(F)cc(/C=C/C(=O)O)cc3F)cc2s1 [Example 66, (E)-3-(3,5-difluoro-4-((1S,3R/1R,3S)-2-(2-fluoro-2-methylpropyl)-3-methyl-6-(2-methylbenzo[d]thiazol-6-yl)-1,2,3,4-tetrahydroisoquinolin-1-yl)phenyl)acrylic acid] | 1.62 | 3.25 |  | 
10 | C[C@H]1Cc2c(oc3ccccc23)[C@H](c2c(F)cc(/C=C/C(=O)O)cc2F)N1CC(C)(C)F [Example 69, (E)-3-(3,5-difluoro-4-((1S,3S)-2-(2-fluoro-2-methylpropyl)-3-methyl-1,2,3,4-tetrahydrobenzofuro[2,3-c]pyridin-1-yl)phenyl)acrylic acid] | 6.41 | 34 |  | 
11 | CC1Cc2c(oc3cc(Cl)ccc23)C(c2c(F)cc(/C=C/C(=O)O)cc2F)N1CC(C)(C)F [Example 85, (E)-3-(4-((1R,3R/1S,3S)-7-chloro-2-(2-fluoro-2-methylpropyl)-3-methyl-1,2,3,4-tetrahydrobenzofuro[2,3-c]pyridin-1-yl)-3,5-difluorophenyl)acrylic acid] | 7.3 | 21.9 |  | 

The next lines start with results.

Row | IC50 [1] [nM] | IC50 [3] [nM] | Compound | DC50 [2] [nM] | DC50 ([2]; MCF-7 cells) [nM]
12 | 2.66 | 4.98 | Cc1ccc(-c2ccc3c(c2)CC(C)N(CC(C)(C)F)C3c2c(F)cc(/C=C/C(=O)O)cc2F)s1 [Example 43, (E)-3-(3,5-difluoro-4-((1S,3R/1R,3S)-2-(2-fluoro-2-methylpropyl)-3-methyl-6-(5-methylthiophen-2-yl)-1,2,3,4-tetrahydroisoquinolin-1-yl)phenyl)acrylic acid] |  | 
13 | 3.67 | 9.41 | CC1Cc2cc(-c3ncco3)ccc2C(c2c(F)cc(/C=C/C(=O)O)cc2F)N1CC(C)(C)F [Example 54, (E)-3-(3,5-difluoro-4-((1S,3R/1R,3S)-2-(2-fluoro-2-methylpropyl)-3-methyl-6-(oxazol-2-yl)-1,2,3,4-tetrahydroisoquinolin-1-yl)phenyl)acrylic acid] |  | 
14 | 4.43 | 13.6 | CC1Cc2c(ccc3c2OCO3)C(c2c(F)cc(/C=C/C(=O)O)cc2F)N1CC(C)(C)F [Example 82, (E)-3-(3,5-difluoro-4-((6S,8R/6R,8S)-7-(2-fluoro-2-methylpropyl)-8-methyl-6,7,8,9-tetrahydro-[1,3]dioxolo[4,5-f]isoquinolin-6-yl)phenyl)acrylic acid] |  | 
15 | 17.5 | 20.5 | CC1Cc2cc3c(cc2C(c2ccc(/C=C/C(=O)O)cc2)N1CC(C)(C)F)OCO3 (centres unmarked) [Example 83, (E)-3-(4-(6-(2-fluoro-2-methylpropyl)-7-methyl-5,6,7,8-tetrahydro-[1,3]dioxolo[4,5-g]isoquinolin-5-yl)phenyl)acrylic acid] |  | 
16 | 1.83 | 0.85 | C[C@@H]1Cc2cc(-c3ccc4cnccc4c3)ccc2[C@@H](c2c(F)cc(/C=C/C(=O)O)cc2F)N1CC(C)(C)F [Example 98, (E)-3-(3,5-difluoro-4-((1S,3R)-2-(2-fluoro-2-methylpropyl)-3-methyl-1,2,3,4-tetrahydro-[6,6′-biisoquinolin]-1-yl)phenyl)acrylic acid] |  | 
17 | 2.07 | 3.14 | CC1Cc2c(ccc3[nH]ncc23)C(c2ccc(/C=C/C(=O)O)cc2)N1CC(C)(C)F [Example 101, (E)-3-(4-((6S,8R/6R,8S)-7-(2-fluoro-2-methylpropyl)-8-methyl-6,7,8,9-tetrahydro-3H-pyrazolo[4,3-f]isoquinolin-6-yl)phenyl)acrylic acid] |  | 
18 | 4.99 | 0.64 | CC(C)CN1C(C)Cc2c(ccc3[nH]ncc23)C1c1ccc(/C=C/C(=O)O)cc1 [Example 102, (E)-3-(4-((6R,8R/6S,8S)-7-isobutyl-8-methyl-6,7,8,9-tetrahydro-3H-pyrazolo[4,3-f]isoquinolin-6-yl)phenyl)acrylic acid] |  | 
19 | 2.95 | 1.32 | CC1Cc2c(ccc3[nH]ncc23)C(c2c(F)cc(/C=C/C(=O)O)cc2F)N1C1CCCC1 [Example 103, (E)-3-(4-((6S,8R/6R,8S)-7-cyclopentyl-8-methyl-6,7,8,9-tetrahydro-3H-pyrazolo[4,3-f]isoquinolin-6-yl)-3,5-difluorophenyl)acrylic acid] |  | 
